Experiments:
Format in all cases: functional
[1] = target: T1, Cdk-related protein kinase 6 (Plasmodium falciparum, UniProt O77239); experiment: Final concentrations were 1.5 uM ATP, 5 mM MnCl2, and 15 ug/ml PK6 in a buffer of 100 mM Tris-HCl (pH 7.5). 50 ug/mL MBP was provided as the substrate; 10 uM staurosporine was used as a control inhibitor. Incubation time was 3 hours and 40 minutes.The catalytic activity of each kinase was considered proportional to ATP consumed, as determined from measurements of residual [ATP] with the luciferase-based reagent Kinase-Glo (Promega) following incubation. Luminescence (proportional to residual [ATP]) was measured on the plate readers FLx800 (BioTek Instruments, Winooski, VT, USA) and MicroBeta2.
T1 sequence (O77239 whole entry): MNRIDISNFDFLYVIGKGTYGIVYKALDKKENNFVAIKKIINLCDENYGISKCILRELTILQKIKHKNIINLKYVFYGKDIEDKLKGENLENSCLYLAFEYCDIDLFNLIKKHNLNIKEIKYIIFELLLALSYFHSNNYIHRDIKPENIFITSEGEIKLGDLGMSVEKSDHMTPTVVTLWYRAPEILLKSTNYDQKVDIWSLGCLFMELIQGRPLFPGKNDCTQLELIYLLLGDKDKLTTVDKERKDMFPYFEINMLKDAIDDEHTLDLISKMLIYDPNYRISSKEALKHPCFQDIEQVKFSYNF

[2] = target: T2, Putative uncharacterized protein pk7 (Plasmodium falciparum, UniProt O96214); experiment: Final concentrations were 1 uM ATP, 2 mM DTT, 20 mM MgCl2, 2 mM MnCl2, 0.01% BSA, and 6 ug/ml PK7, in a buffer of 20 mM Tris-HCl (pH 7.5). The enzyme itself was the only substrate present (since autophosphorylation occurs); 100 uM 1NA-PP1 was used as a control inhibitor. Incubation time was 3 hours.
T2 sequence (O96214 whole entry): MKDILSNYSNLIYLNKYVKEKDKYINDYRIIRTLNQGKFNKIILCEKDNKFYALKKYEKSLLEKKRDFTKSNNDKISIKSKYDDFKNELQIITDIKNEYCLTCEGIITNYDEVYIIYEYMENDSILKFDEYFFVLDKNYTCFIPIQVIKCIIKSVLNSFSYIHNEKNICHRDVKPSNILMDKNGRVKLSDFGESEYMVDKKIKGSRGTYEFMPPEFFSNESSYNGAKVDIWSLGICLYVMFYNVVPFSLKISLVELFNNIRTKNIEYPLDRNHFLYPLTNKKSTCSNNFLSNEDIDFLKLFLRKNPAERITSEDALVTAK

[3] = target: T3, Mitogen-activated protein kinase (Plasmodium falciparum, UniProt Q25917); experiment: Final concentrations were 1 uM ATP, 0.5 mM DTT, 1 mM MgCl2, 0.5 mg/mL BSA, and 10 ug/ml MAP2 in a buffer of 50 mM HEPES (pH 7.0). 0.5 mg/mL histone III-S served as the substrate (13); 100 uM AMP-PNP, an ATP analog, was used as a control inhibitor. Incubation time was 4 hours.
T3 sequence (Q25917 whole entry): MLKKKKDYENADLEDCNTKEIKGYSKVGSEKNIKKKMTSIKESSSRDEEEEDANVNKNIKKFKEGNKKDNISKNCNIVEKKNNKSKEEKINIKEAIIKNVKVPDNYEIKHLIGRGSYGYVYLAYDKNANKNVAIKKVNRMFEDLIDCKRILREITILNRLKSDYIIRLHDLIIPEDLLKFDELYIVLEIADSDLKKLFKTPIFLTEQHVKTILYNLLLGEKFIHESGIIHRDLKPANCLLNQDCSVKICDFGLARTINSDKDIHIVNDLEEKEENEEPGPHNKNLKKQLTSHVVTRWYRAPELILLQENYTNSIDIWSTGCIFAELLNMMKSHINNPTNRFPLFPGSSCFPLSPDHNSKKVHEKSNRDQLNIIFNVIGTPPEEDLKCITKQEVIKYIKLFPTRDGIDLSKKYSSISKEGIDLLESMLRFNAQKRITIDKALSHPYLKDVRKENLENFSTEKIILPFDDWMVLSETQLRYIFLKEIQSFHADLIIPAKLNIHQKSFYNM

[4] = target: Calcium-dependent protein kinase 1 (Plasmodium falciparum, UniProt P62344); experiment: MMV: CDPK1 Protein kinase inhibition assay using recombinant PfCDPK1, syntide 2 peptide substrate, ATP and KinaseGlo to measure % inhibition at 1 uM MMV box compound.
Chain of Calcium-dependent protein kinase 1 (P62344 whole entry): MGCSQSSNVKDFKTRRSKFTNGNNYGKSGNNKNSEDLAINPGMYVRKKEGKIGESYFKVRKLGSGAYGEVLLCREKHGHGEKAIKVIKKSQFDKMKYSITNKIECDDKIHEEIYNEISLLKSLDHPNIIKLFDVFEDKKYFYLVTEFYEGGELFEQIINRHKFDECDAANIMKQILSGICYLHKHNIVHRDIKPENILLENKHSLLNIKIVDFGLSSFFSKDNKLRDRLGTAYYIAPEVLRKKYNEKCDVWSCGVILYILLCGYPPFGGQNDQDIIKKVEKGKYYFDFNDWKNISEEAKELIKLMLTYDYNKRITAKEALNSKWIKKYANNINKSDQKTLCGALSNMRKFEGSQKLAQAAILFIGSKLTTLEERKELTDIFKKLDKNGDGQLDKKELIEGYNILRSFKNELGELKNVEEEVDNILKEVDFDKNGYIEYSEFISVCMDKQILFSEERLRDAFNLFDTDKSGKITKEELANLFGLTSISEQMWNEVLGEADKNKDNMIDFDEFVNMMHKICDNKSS

[5] = target: T4, Calcium-dependent protein kinase 4 (Plasmodium falciparum (isolate 3D7), UniProt Q8IBS5); experiment: MMV: CDPK4 Protein kinase inhibition assay using recombinant PfCDPK4, syntide2 peptide substrate, ATP and KinaseGlo to measure % inhibition at 1 uM MMV box compound.
T4 sequence (Q8IBS5 whole entry): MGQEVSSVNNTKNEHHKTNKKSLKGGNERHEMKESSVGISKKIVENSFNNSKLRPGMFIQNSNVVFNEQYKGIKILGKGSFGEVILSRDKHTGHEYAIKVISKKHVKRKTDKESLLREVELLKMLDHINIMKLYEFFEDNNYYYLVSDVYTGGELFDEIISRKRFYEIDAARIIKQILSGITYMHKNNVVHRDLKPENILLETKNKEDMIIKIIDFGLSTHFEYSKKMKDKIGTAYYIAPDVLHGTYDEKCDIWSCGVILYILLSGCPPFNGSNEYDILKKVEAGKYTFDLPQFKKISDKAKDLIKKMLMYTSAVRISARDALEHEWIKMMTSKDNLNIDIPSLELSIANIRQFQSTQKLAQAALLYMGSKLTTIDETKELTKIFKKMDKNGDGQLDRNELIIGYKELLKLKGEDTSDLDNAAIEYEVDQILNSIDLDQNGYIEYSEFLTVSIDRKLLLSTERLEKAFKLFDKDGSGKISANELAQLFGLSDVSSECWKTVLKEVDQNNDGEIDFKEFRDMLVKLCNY

[6] = target: T5, Proline--tRNA ligase (Plasmodium falciparum (isolate 3D7), UniProt Q8I5R7); experiment: MMV: ProRS recombinant Plasmodium falciparum Prolyl-tRNA-synthetase, assay with yeast tRNA, ATP, and proline and 3 uM MMV malaria box compound, assay read out with kinase glo as % inhibition.
T5 sequence (Q8I5R7 whole entry): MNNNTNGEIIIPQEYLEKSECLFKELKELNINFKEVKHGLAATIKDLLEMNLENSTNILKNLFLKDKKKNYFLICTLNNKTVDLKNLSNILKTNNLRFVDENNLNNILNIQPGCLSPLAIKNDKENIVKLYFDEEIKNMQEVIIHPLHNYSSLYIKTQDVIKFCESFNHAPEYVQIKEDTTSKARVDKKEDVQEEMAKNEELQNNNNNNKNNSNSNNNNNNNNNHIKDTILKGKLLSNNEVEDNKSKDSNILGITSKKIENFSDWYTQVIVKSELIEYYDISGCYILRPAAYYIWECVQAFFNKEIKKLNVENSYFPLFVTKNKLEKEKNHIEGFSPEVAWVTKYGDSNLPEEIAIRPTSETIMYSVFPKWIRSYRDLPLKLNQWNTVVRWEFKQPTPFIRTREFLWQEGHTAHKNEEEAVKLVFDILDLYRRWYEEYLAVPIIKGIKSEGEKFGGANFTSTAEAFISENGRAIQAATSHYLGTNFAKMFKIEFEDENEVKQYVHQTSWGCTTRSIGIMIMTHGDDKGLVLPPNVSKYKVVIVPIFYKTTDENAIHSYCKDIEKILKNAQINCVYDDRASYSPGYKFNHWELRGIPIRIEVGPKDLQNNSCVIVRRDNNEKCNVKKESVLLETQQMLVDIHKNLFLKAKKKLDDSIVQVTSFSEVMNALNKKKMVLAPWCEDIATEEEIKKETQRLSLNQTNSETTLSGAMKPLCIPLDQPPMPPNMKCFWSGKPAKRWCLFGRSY

[7] = target: Lysine--tRNA ligase (Plasmodium falciparum (isolate 3D7), UniProt Q8IDJ8); experiment: MMV: KRS recombinant Plasmodium falciparum Lysyl-tRNA-synthetase, assay with yeast tRNA, ATP, and lysine and 3 uM MMV malaria box compound, assay read out with kinase glo as % inhibition.
Chain of Lysine--tRNA ligase (Q8IDJ8 whole entry): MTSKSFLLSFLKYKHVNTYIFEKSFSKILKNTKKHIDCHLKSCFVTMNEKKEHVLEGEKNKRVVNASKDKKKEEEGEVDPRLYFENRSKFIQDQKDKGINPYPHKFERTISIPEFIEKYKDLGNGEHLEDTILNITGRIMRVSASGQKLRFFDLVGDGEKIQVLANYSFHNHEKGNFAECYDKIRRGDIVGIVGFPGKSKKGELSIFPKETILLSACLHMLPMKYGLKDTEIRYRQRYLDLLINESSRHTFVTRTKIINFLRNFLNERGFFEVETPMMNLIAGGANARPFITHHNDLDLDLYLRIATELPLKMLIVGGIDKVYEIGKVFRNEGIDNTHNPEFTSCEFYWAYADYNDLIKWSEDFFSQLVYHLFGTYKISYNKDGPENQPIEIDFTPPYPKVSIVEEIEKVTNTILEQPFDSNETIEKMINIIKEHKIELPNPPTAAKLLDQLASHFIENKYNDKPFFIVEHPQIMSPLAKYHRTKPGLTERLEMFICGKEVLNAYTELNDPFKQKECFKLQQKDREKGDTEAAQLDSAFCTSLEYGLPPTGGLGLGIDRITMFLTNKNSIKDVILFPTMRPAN

SMILES | IC50 [1] [nM] | IC50 [2] [nM] | IC50 [3] [nM] | IC50 [4] [nM] | IC50 [5] [nM] | IC50 [6] [nM] | IC50 [7] [nM]
CCOc1cc(CNC(C)C(O)c2ccccc2)cc(Cl)c1OCC (configuration not stated) | > 1000 | > 1000 | > 1000 | > 1000 | > 1000 | > 2500 | > 2500
Cc1cc(NC(=O)c2cccc(C(F)(F)F)c2)n(-c2nc(-c3ccc4c(c3)OCO4)cs2)n1 | > 1000 | > 1000 | > 1000 | > 1000 | > 1000 | > 2500 | > 2500
COc1cccc(C2(C)Nc3ccccc3-c3nc4ccccc4n32)c1 (configuration not stated) | > 1000 | > 1000 | > 1000 | > 1000 | > 1000 | > 2500 | > 2500
CC(C)CNC(=O)c1c(N)n(CCc2ccccc2F)c2nc3ccccc3nc12 | > 1000 | > 1000 | > 1000 | > 1000 | > 1000 | > 2500 | > 2500
COCCNCC(O)Cn1c2ccc(Cl)cc2c2cc(Cl)ccc21 (configuration not stated) | > 1000 | > 1000 | > 1000 | > 1000 | > 1000 | > 2500 | > 2500
O=C(NC1CCN(Cc2ccccc2)CC1)c1cc(-c2ccncc2)nc2ccc(Cl)cc12 | > 1000 | > 1000 | > 1000 | > 1000 | > 1000 | > 2500 | > 2500
COc1cc2cc(C(=O)Nc3ccccc3)c(N)nc2cc1OC | > 1000 | > 1000 | > 1000 | > 1000 | > 1000 | > 2500 | > 2500
Oc1ccccc1CN1CCN(C(c2ccccc2)c2ccccc2)CC1 | > 1000 | > 1000 | > 1000 | > 1000 | > 1000 | > 2500 | > 2500
CC(=O)Nc1nnc(SCc2c(C)cc(C(C)(C)C)cc2C)s1 | > 1000 | > 1000 | > 1000 | > 1000 | > 1000 | > 2500 | > 2500
CCOc1ccc(C2N(C)c3ccccc3N2C)cc1 | > 1000 | > 1000 | > 1000 | > 1000 | > 1000 | > 2500 | > 2500
CCN(Cc1ccccc1)C1CCN(Cc2cc(Br)ccc2O)CC1 | > 1000 | > 1000 | > 1000 | > 1000 | > 1000 | > 2500 | > 2500

Source: ChEMBL document CHEMBL3301562, “MMV Box screening against Plasmodium falciparum protein kinases and aminoacyl tRNA synthetases”
